# Measured values taken from paper PMC11012124, “Synthesis of Novel Triazine-Based Chalcones and 8,9-dihydro-7H-pyrimido[4,5-b][1,4]diazepines as Potential Leads in the Search of Anticancer, Antibacterial and Antifungal Agents” (International Journal of Molecular Sciences, 2024).
# Experiments:
# IGROV1 = assay: cells; settings: Homo sapiens, IGROV-1, 48 h; for CC50: read-out: LC50
# SK-MEL-2 = assay: cells; settings: Homo sapiens, SK-MEL-2, 48 h; for CC50: read-out: LC50
# ACHN = assay: cells; settings: Homo sapiens, 48 h; for CC50: read-out: LC50
# NCI-H460 = assay: cells; settings: Homo sapiens, NCI-H460, 48 h; for CC50: read-out: LC50
# SNB-19 = assay: cells; settings: Homo sapiens, SNB-19, 48 h; for CC50: read-out: LC50
# SF-295 = assay: cells; settings: Homo sapiens, SF-295, 48 h; for CC50: read-out: LC50
# KM12 = assay: cells; settings: Homo sapiens, KM12, 48 h; for CC50: read-out: LC50
# HOP-62 = assay: cells; settings: Homo sapiens, HOP-62, 48 h; for CC50: read-out: LC50
# CCRF-CEM = assay: cells; settings: Homo sapiens, 48 h; for CC50: read-out: LC50
# SK-MEL-28 = assay: cells; settings: Homo sapiens, SK-MEL-28, 48 h; for CC50: read-out: LC50
# HL-60(TB) = assay: cells; settings: Homo sapiens, HL-60, 48 h; for CC50: read-out: LC50
# 786-0 = assay: cells; settings: Homo sapiens, 786-0, 48 h; for CC50: read-out: LC50
# MALME-3M = assay: cells; settings: Homo sapiens, 48 h
# HCT-116 = assay: cells; settings: Homo sapiens, HCT-116, 48 h; for CC50: read-out: LC50
# SF-268 = assay: cells; settings: Homo sapiens, SF-268, 48 h; for CC50: read-out: LC50
# U251 = assay: cells; settings: Homo sapiens, U-251, 48 h; for GI50: U251, 48 h; for CC50: read-out: LC50
# COLO 205 = assay: cells; settings: Homo sapiens, COLO 205, 48 h; for CC50: read-out: LC50
# NCI-H226 = assay: cells; settings: Homo sapiens, NCI-H226, 48 h; for CC50: read-out: LC50
# SW-620 = assay: cells; settings: Homo sapiens, SW-620, 48 h; for CC50: read-out: LC50
# NCI-H322M = assay: cells; settings: Homo sapiens, 48 h; for CC50: read-out: LC50
# OVCAR-4 = assay: cells; settings: Homo sapiens, OVCAR-4, 48 h; for CC50: read-out: LC50
# MDA-MB-435 = assay: cells; settings: Homo sapiens, MDA-MB-435, 48 h; for CC50: read-out: LC50
# RPMI-8226 = assay: cells; settings: Homo sapiens, RPMI-8226, 48 h
# UACC-257 = assay: cells; settings: Homo sapiens, UACC-257, 48 h; for CC50: read-out: LC50
# UO-31 = assay: cells; settings: Homo sapiens, UO-31, 48 h; for CC50: read-out: LC50
# HCT-15 = assay: cells; settings: Homo sapiens, HCT-15, 48 h; for CC50: read-out: LC50
# SN12C = assay: cells; settings: Homo sapiens, 48 h
# A549/ATCC = assay: cells; settings: Homo sapiens, A549, 48 h; for CC50: read-out: LC50
# OVCAR-8 = assay: cells; settings: Homo sapiens, OVCAR-8, 48 h; for CC50: read-out: LC50
# BT-549 = assay: cells; settings: Homo sapiens, BT-549, 48 h; for CC50: read-out: LC50
# EKVX = assay: cells; settings: Homo sapiens, 48 h; for CC50: read-out: LC50
# SK-MEL-5 = assay: cells; settings: Homo sapiens, SK-MEL-5, 48 h; for CC50: read-out: LC50
# OVCAR-5 = assay: cells; settings: Homo sapiens, OVCAR-5, 48 h; for CC50: read-out: LC50
# M14 = assay: cells; settings: Homo sapiens, M14, 48 h; for CC50: read-out: LC50
# 60 cancer cell lines = assay: NCI-60 one-dose screen (10 μM); format: cell-based; settings: Homo sapiens; one dose of 10 μM, mean over 60 cancer cell lines; read-out: Mean Growth Percent (MGP)
# Text: Additionally, the mean of the growth percentages (MGP) of each compound against all the 60 cancer cell lines is also reported, which is used as one of the selection criteria to continue with tests at five concentration doses.
# SNB-75 = assay: cells; settings: Homo sapiens, SNB-75, 48 h; for CC50: read-out: LC50
structure (smiles),measurement,setting,value
Nc1nc(N)c2c(n1)NC(c1ccc(Cl)cc1)CC(c1ccc(Nc3nc(NCCO)nc(Nc4ccc(Cl)cc4)n3)cc1)=N2 (stereo not shown) [33e],GI50,IGROV1,1.71 µM
same,CC50,IGROV1,7.46 µM
same,GI50,SK-MEL-2,1.45 µM
same,CC50,SK-MEL-2,5.53 µM
same,GI50,ACHN,4.69 µM
same,CC50,ACHN,> 100 µM
same,GI50,NCI-H460,1.72 µM
same,CC50,NCI-H460,6.42 µM
same,GI50,SNB-19,1.99 µM
same,CC50,SNB-19,21.4 µM
same,GI50,SF-295,1.73 µM
same,CC50,SF-295,7.76 µM
same,GI50,KM12,3.18 µM
same,CC50,KM12,> 100 µM
same,GI50,HOP-62,2.83 µM
same,CC50,HOP-62,34.5 µM
same,GI50,CCRF-CEM,1.14 µM
same,CC50,CCRF-CEM,> 100 µM
same,GI50,SK-MEL-28,1.73 µM
same,CC50,SK-MEL-28,5.61 µM
same,GI50,HL-60(TB),1.15 µM
same,CC50,HL-60(TB),> 100 µM
same,GI50,786-0,1.55 µM
same,CC50,786-0,5.96 µM
same,GI50,MALME-3M,1.75 µM
same,GI50,HCT-116,1.4 µM
same,CC50,HCT-116,5.19 µM
same,GI50,SF-268,4.14 µM
same,CC50,SF-268,> 100 µM
same,GI50,U251,1.47 µM
same,CC50,U251,5.81 µM
same,GI50,COLO 205,1.51 µM
same,CC50,COLO 205,8.55 µM
same,GI50,NCI-H226,6.47 µM
same,CC50,NCI-H226,> 100 µM
same,GI50,SW-620,1.62 µM
same,CC50,SW-620,6.72 µM
same,GI50,NCI-H322M,2.02 µM
same,CC50,NCI-H322M,16.9 µM
same,GI50,OVCAR-4,1.96 µM
same,CC50,OVCAR-4,32.7 µM
same,GI50,MDA-MB-435,1.63 µM
same,CC50,MDA-MB-435,6.2 µM
same,GI50,RPMI-8226,1.44 µM
same,GI50,UACC-257,1.91 µM
same,CC50,UACC-257,7.32 µM
same,GI50,UO-31,3.1 µM
same,CC50,UO-31,> 100 µM
same,GI50,HCT-15,1.29 µM
same,CC50,HCT-15,6.09 µM
same,GI50,SN12C,1.95 µM
same,GI50,A549/ATCC,4.12 µM
same,CC50,A549/ATCC,> 100 µM
same,GI50,OVCAR-8,1.57 µM
same,CC50,OVCAR-8,6.81 µM
same,GI50,BT-549,2.25 µM
same,CC50,BT-549,23.5 µM
same,GI50,EKVX,2.01 µM
same,CC50,EKVX,28.7 µM
same,GI50,SK-MEL-5,1.48 µM
same,CC50,SK-MEL-5,5.3 µM
same,GI50,OVCAR-5,4.48 µM
same,CC50,OVCAR-5,74 µM
same,GI50,M14,1.9 µM
same,CC50,M14,10.5 µM
same,activity at 10 µM,60 cancer cell lines,30.5%
same,GI50,SNB-75,1.59 µM
same,CC50,SNB-75,9.94 µM
Cc1ccc(C2CC(c3ccc(Nc4nc(NCCO)nc(Nc5ccc(Cl)cc5)n4)cc3)=Nc3c(N)nc(N)nc3N2)cc1 (stereo not shown) [33b],GI50,IGROV1,1.65 µM
same,CC50,IGROV1,5.98 µM
same,GI50,SK-MEL-2,1.81 µM
same,CC50,SK-MEL-2,6.4 µM
same,GI50,ACHN,1.72 µM
same,CC50,ACHN,5.56 µM
same,GI50,NCI-H460,1.8 µM
same,CC50,NCI-H460,6.41 µM
same,GI50,SNB-19,1.57 µM
same,CC50,SNB-19,5.75 µM
same,GI50,SF-295,1.63 µM
same,CC50,SF-295,5.63 µM
same,GI50,KM12,1.97 µM
same,CC50,KM12,7.54 µM
same,GI50,HOP-62,1.68 µM
same,CC50,HOP-62,6.08 µM
same,GI50,CCRF-CEM,1.67 µM
same,CC50,CCRF-CEM,> 100 µM
same,GI50,SK-MEL-28,1.77 µM
same,CC50,SK-MEL-28,5.65 µM
same,GI50,HL-60(TB),1.71 µM
same,CC50,HL-60(TB),> 100 µM
same,GI50,786-0,1.64 µM
same,CC50,786-0,5.7 µM
same,GI50,MALME-3M,1.7 µM
same,CC50,MALME-3M; read-out: LC50,6.69 µM
same,GI50,HCT-116,1.62 µM
same,CC50,HCT-116,5.45 µM
same,GI50,SF-268,1.81 µM
same,CC50,SF-268,7.35 µM
same,GI50,U251,1.6 µM
same,CC50,U251,5.65 µM
same,GI50,COLO 205,1.67 µM
same,CC50,COLO 205,6.09 µM
same,GI50,NCI-H226,16.7 µM
same,CC50,NCI-H226,88.2 µM
same,GI50,SW-620,1.79 µM
same,CC50,SW-620,6.12 µM
same,GI50,NCI-H322M,1.59 µM
same,CC50,NCI-H322M,5.42 µM
same,GI50,OVCAR-4,1.85 µM
same,CC50,OVCAR-4,7.14 µM
same,GI50,MDA-MB-435,1.73 µM
same,CC50,MDA-MB-435,5.68 µM
same,GI50,RPMI-8226,1.83 µM
same,CC50,RPMI-8226; read-out: LC50,> 100 µM
same,GI50,UACC-257,1.84 µM
same,CC50,UACC-257,6.54 µM
same,GI50,UO-31,1.64 µM
same,CC50,UO-31,5.51 µM
same,GI50,HCT-15,1.48 µM
same,CC50,HCT-15,5.87 µM
same,GI50,SN12C,1.79 µM
same,CC50,SN12C; read-out: LC50,6.39 µM
same,GI50,A549/ATCC,1.74 µM
same,CC50,A549/ATCC,6.8 µM
same,GI50,OVCAR-8,1.8 µM
same,CC50,OVCAR-8,7.55 µM
same,GI50,BT-549,1.73 µM
same,CC50,BT-549,5.69 µM
same,GI50,EKVX,1.55 µM
same,CC50,EKVX,5.71 µM
same,GI50,SK-MEL-5,1.56 µM
same,CC50,SK-MEL-5,5.43 µM
same,GI50,OVCAR-5,1.62 µM
same,CC50,OVCAR-5,5.59 µM
same,GI50,M14,1.84 µM
same,CC50,M14,5.99 µM
same,activity at 10 µM,60 cancer cell lines,-21.8%
same,GI50,SNB-75,1.62 µM
same,CC50,SNB-75,6.73 µM
